Counter-ions that a name gives are not always drawn. Like-named read-outs stand apart in the source and are kept apart here.
Assays:
Format in all cases: biochemical
recombinant PRL-2 = target: T1, recombinant PRL-2 (Homo sapiens, UniProt Q12974); test: In vitro phosphatase assay (DiFMUP hydrolysis), PRL-2;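 note: PRL-2 activity read as DiFMUP hydrolysis after 20 min at room temperature with drug, enzyme first pre-reduced at 4 °C for 20 min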
T1 construct: 6xHis (N, cleaved yes); made in house; host or cells: E. coli One Shot BL21 Star
T1 sequence (Q12974 1-167): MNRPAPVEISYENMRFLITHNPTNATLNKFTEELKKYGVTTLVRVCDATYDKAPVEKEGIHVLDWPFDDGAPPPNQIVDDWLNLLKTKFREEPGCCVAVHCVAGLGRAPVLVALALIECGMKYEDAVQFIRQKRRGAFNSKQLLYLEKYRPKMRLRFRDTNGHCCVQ

recombinant PRL-3 = target: T2, recombinant PRL-3 (Homo sapiens, UniProt O75365); test: In vitro phosphatase assay (DiFMUP hydrolysis), PRL-3; note: test concentration or dose not given here
T2 construct: 6xHis (N, cleaved yes); made in house; host or cells: E. coli One Shot BL21 Star
T2 sequence (O75365 whole entry): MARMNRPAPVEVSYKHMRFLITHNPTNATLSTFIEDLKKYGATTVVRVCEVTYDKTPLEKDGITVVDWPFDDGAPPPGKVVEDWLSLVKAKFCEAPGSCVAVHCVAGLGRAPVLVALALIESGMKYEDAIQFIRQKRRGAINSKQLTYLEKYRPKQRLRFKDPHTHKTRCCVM

recombinant PRL-1 = target: T3, recombinant PRL-1 (Homo sapiens, UniProt Q93096); test: In vitro phosphatase assay (DiFMUP hydrolysis), PRL-1; note: test concentration or dose not given here
T3 construct: 6xHis (N, cleaved yes); made in house; host or cells: E. coli One Shot BL21 Star
T3 sequence (Q93096 1-173): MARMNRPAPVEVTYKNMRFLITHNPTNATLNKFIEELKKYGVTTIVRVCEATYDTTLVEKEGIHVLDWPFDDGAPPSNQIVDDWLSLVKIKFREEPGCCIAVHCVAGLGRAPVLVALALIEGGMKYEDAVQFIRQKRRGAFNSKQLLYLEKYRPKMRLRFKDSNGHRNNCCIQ

[1] = FDA-approved drug screen, compared to DMSO

## O=C(O)c1cccnc1 [Nicotinic Acid]
Recombinant PRL-2
  % Phosphatase Activity (compared to DMSO) PRL-2: 94%
Recombinant PRL-3
  % Phosphatase Activity (compared to DMSO) PRL-3: 91%
Recombinant PRL-1
  % Phosphatase Activity (compared to DMSO) PRL-1: 95%

## Cc1c(NC(=O)c2cccnc2)c(=O)n(-c2ccccc2)n1C [Nifenazone]
Recombinant PRL-2; [1]
  % Phosphatase Activity (compared to DMSO) PRL-2: 105%
Recombinant PRL-3; [1]
  % Phosphatase Activity (compared to DMSO) PRL-3: 92%
Recombinant PRL-1; [1]
  % Phosphatase Activity (compared to DMSO) PRL-1: 91%

## O=C(O)c1cccnc1Nc1cccc(C(F)(F)F)c1 [Niflumic acid]
Recombinant PRL-2; [1]
  % Phosphatase Activity (compared to DMSO) PRL-2: 112%
Recombinant PRL-3; [1]
  % Phosphatase Activity (compared to DMSO) PRL-3: 88%
Recombinant PRL-1; [1]
  % Phosphatase Activity (compared to DMSO) PRL-1: 109%

## O=C(N/N=C/c1ccc([N+](=O)[O-])o1)c1ccc(O)cc1 [Nifuroxazide]
Recombinant PRL-2; [1]
  % Phosphatase Activity (compared to DMSO) PRL-2: 62%
Recombinant PRL-3; [1]
  % Phosphatase Activity (compared to DMSO) PRL-3: 57%
Recombinant PRL-1; [1]
  % Phosphatase Activity (compared to DMSO) PRL-1: 68%

## Cc1cn(-c2cc(NC(=O)c3ccc(C)c(Nc4nccc(-c5cccnc5)n4)c3)cc(C(F)(F)F)c2)cn1 [Nilotinib (AMN-107)]
Recombinant PRL-2; [1]
  % Phosphatase Activity (compared to DMSO) PRL-2: 92%
Recombinant PRL-3; [1]
  % Phosphatase Activity (compared to DMSO) PRL-3: 76%
Recombinant PRL-1; [1]
  % Phosphatase Activity (compared to DMSO) PRL-1: 83%

## COC(=O)C1=C(C#N)NC(C)=C(C(=O)OC(C)C)C1c1cccc([N+](=O)[O-])c1 (stereo not drawn) [Nilvadipine]
Recombinant PRL-2; [1]
  % Phosphatase Activity (compared to DMSO) PRL-2: 82%
Recombinant PRL-3; [1]
  % Phosphatase Activity (compared to DMSO) PRL-3: 87%
Recombinant PRL-1; [1]
  % Phosphatase Activity (compared to DMSO) PRL-1: 88%

## CS(=O)(=O)Nc1ccc([N+](=O)[O-])cc1Oc1ccccc1 [Nimesulide]
Recombinant PRL-2
  % Phosphatase Activity (compared to DMSO) PRL-2: 83%
Recombinant PRL-3
  % Phosphatase Activity (compared to DMSO) PRL-3: 85%
Recombinant PRL-1
  % Phosphatase Activity (compared to DMSO) PRL-1: 78%

## COCCOC(=O)C1=C(C)NC(C)=C(C(=O)OC(C)C)C1c1cccc([N+](=O)[O-])c1 (stereo not drawn) [Nimodipine]
Recombinant PRL-2; [1]
  % Phosphatase Activity (compared to DMSO) PRL-2: 72%
Recombinant PRL-3; [1]
  % Phosphatase Activity (compared to DMSO) PRL-3: 88%
Recombinant PRL-1; [1]
  % Phosphatase Activity (compared to DMSO) PRL-1: 76%

## COC(=O)c1ccc2c(c1)NC(=O)/C2=C(\Nc1ccc(N(C)C(=O)CN2CCN(C)CC2)cc1)c1ccccc1 [Nintedanib (BIBF 1120)]
Recombinant PRL-2; [1]
  % Phosphatase Activity (compared to DMSO) PRL-2: 106%
Recombinant PRL-3; [1]
  % Phosphatase Activity (compared to DMSO) PRL-3: 73%
Recombinant PRL-1; [1]
  % Phosphatase Activity (compared to DMSO) PRL-1: 92%

## COC(=O)C1=C(C)NC(C)=C(C(=O)OCC(C)C)C1c1ccccc1[N+](=O)[O-] (stereo not drawn) [Nisoldipine]
Recombinant PRL-2; [1]
  % Phosphatase Activity (compared to DMSO) PRL-2: 75%
Recombinant PRL-3; [1]
  % Phosphatase Activity (compared to DMSO) PRL-3: 85%
Recombinant PRL-1; [1]
  % Phosphatase Activity (compared to DMSO) PRL-1: 81%

## CC(=O)Oc1ccccc1C(=O)Nc1ncc([N+](=O)[O-])s1 [Nitazoxanide]
Recombinant PRL-2; [1]
  % Phosphatase Activity (compared to DMSO) PRL-2: 76%
Recombinant PRL-3; [1]
  % Phosphatase Activity (compared to DMSO) PRL-3: 62%
Recombinant PRL-1; [1]
  % Phosphatase Activity (compared to DMSO) PRL-1: 87%

## CCOC(=O)C1=C(C)NC(C)=C(C(=O)OC)C1c1cccc([N+](=O)[O-])c1 (stereo not drawn) [Nitrendipine]
Recombinant PRL-2; [1]
  % Phosphatase Activity (compared to DMSO) PRL-2: 84%
Recombinant PRL-3; [1]
  % Phosphatase Activity (compared to DMSO) PRL-3: 68%
Recombinant PRL-1; [1]
  % Phosphatase Activity (compared to DMSO) PRL-1: 85%

## NC(=O)N/N=C/c1ccc([N+](=O)[O-])o1 [Nitrofural]
Recombinant PRL-2; [1]
  % Phosphatase Activity (compared to DMSO) PRL-2: 72%
Recombinant PRL-3; [1]
  % Phosphatase Activity (compared to DMSO) PRL-3: 68%
Recombinant PRL-1; [1]
  % Phosphatase Activity (compared to DMSO) PRL-1: 82%

## O=C1CN(/N=C/c2ccc([N+](=O)[O-])o2)C(=O)N1 [Nitrofurantoin]
Recombinant PRL-2
  % Phosphatase Activity (compared to DMSO) PRL-2: 63%
Recombinant PRL-3
  % Phosphatase Activity (compared to DMSO) PRL-3: 67%
Recombinant PRL-1
  % Phosphatase Activity (compared to DMSO) PRL-1: 76%

## O=[N+]([O-])c1ccc(O)c2ncccc12 [Nitroxoline]
Recombinant PRL-2; [1]
  % Phosphatase Activity (compared to DMSO) PRL-2: 48%
Recombinant PRL-3; [1]
  % Phosphatase Activity (compared to DMSO) PRL-3: 49%
Recombinant PRL-1; [1]
  % Phosphatase Activity (compared to DMSO) PRL-1: 58%

## CNC(=C[N+](=O)[O-])NCCSCc1csc(CN(C)C)n1 [Nizatidine]
Recombinant PRL-2; [1]
  % Phosphatase Activity (compared to DMSO) PRL-2: 105%
Recombinant PRL-3; [1]
  % Phosphatase Activity (compared to DMSO) PRL-3: 97%
Recombinant PRL-1; [1]
  % Phosphatase Activity (compared to DMSO) PRL-1: 87%

## NC[C@H](O)c1ccc(O)c(O)c1.O.O=C(O)C(O)C(O)C(=O)O [Noradrenaline bitartrate monohydrate]
Recombinant PRL-2; [1]
  % Phosphatase Activity (compared to DMSO) PRL-2: 120%
Recombinant PRL-3; [1]
  % Phosphatase Activity (compared to DMSO) PRL-3: 88%
Recombinant PRL-1; [1]
  % Phosphatase Activity (compared to DMSO) PRL-1: 103%

## C#C[C@]1(O)CC[C@H]2[C@@H]3CCC4=CC(=O)CC[C@@H]4[C@H]3CC[C@@]21C [Norethindrone]
Recombinant PRL-2; [1]
  % Phosphatase Activity (compared to DMSO) PRL-2: 104%
Recombinant PRL-3; [1]
  % Phosphatase Activity (compared to DMSO) PRL-3: 79%
Recombinant PRL-1; [1]
  % Phosphatase Activity (compared to DMSO) PRL-1: 92%

## CCn1cc(C(=O)O)c(=O)c2cc(F)c(N3CCNCC3)cc21 [Norfloxacin]
Recombinant PRL-2; [1]
  % Phosphatase Activity (compared to DMSO) PRL-2: 130%
Recombinant PRL-3; [1]
  % Phosphatase Activity (compared to DMSO) PRL-3: 111%
Recombinant PRL-1; [1]
  % Phosphatase Activity (compared to DMSO) PRL-1: 131%

## COc1ccc2c(c1OC)C(=O)O[C@@H]2[C@H]1c2c(cc3c(c2OC)OCO3)CCN1C [Noscapine HCl]
Recombinant PRL-2; [1]
  % Phosphatase Activity (compared to DMSO) PRL-2: 116%
Recombinant PRL-3; [1]
  % Phosphatase Activity (compared to DMSO) PRL-3: 103%
Recombinant PRL-1; [1]
  % Phosphatase Activity (compared to DMSO) PRL-1: 92%

## CO[C@@H]1[C@@H](OC(N)=O)[C@@H](O)[C@H](Oc2ccc3c(O)c(NC(=O)c4ccc(O)c(CC=C(C)C)c4)c(=O)oc3c2C)OC1(C)C [Novobiocin Sodium]
Recombinant PRL-2; [1]
  % Phosphatase Activity (compared to DMSO) PRL-2: 87%
Recombinant PRL-3; [1]
  % Phosphatase Activity (compared to DMSO) PRL-3: 70%
Recombinant PRL-1; [1]
  % Phosphatase Activity (compared to DMSO) PRL-1: 94%

## C[C@@H]1[C@H](O)[C@@H](C)/C=C/C=C/CC/C=C/C=C/C=C/C=C/[C@H](O[C@H]2O[C@@H](C)[C@H](O)[C@@H](N)[C@H]2O)C[C@@H]2O[C@](O)(C[C@@H](O)[C@H](O)CC[C@@H](O)C[C@@H](O)C[C@@H](O)CC(=O)O[C@H]1C)C[C@H](O)[C@H]2C(=O)O [Nystatin (Fungicidin)]
Recombinant PRL-2; [1]
  % Phosphatase Activity (compared to DMSO) PRL-2: 87%
Recombinant PRL-3; [1]
  % Phosphatase Activity (compared to DMSO) PRL-3: 81%
Recombinant PRL-1; [1]
  % Phosphatase Activity (compared to DMSO) PRL-1: 79%

## C[C@]1(O)C[C@@H](c2nc(-c3ccc4ccc(-c5ccccc5)nc4c3)c3c(N)nccn32)C1 [OSI-906 (Linsitinib)]
Recombinant PRL-2; [1]
  % Phosphatase Activity (compared to DMSO) PRL-2: 96%
Recombinant PRL-3; [1]
  % Phosphatase Activity (compared to DMSO) PRL-3: 77%
Recombinant PRL-1; [1]
  % Phosphatase Activity (compared to DMSO) PRL-1: 79%

## CC[C@H]1[C@@H](O)[C@@H]2[C@H](CC[C@]3(C)[C@@H]([C@H](C)CCC(=O)O)CC[C@@H]23)[C@@]2(C)CC[C@@H](O)C[C@@H]12 [Obeticholic Acid]
Recombinant PRL-2; [1]
  % Phosphatase Activity (compared to DMSO) PRL-2: 72%
Recombinant PRL-3; [1]
  % Phosphatase Activity (compared to DMSO) PRL-3: 90%
Recombinant PRL-1; [1]
  % Phosphatase Activity (compared to DMSO) PRL-1: 86%

## CNS(=O)(=O)C[C@H]1CC[C@H](N(C)c2ncnc3[nH]ccc23)CC1 [Oclacitinib]
Recombinant PRL-2; [1]
  % Phosphatase Activity (compared to DMSO) PRL-2: 81%
Recombinant PRL-3; [1]
  % Phosphatase Activity (compared to DMSO) PRL-3: 80%
Recombinant PRL-1; [1]
  % Phosphatase Activity (compared to DMSO) PRL-1: 98%

Reference: publication PMC8119466, “A screen of FDA-approved drugs identifies inhibitors of protein tyrosine phosphatase 4A3 (PTP4A3 or PRL-3)” (Scientific Reports, 2021)
